Article PMC5479551, “Development of a range of fluorescent reagentless biosensors for ATP, based on malonyl-coenzyme A synthetase” (PLoS ONE, 2017)
“And” between values parts separate entries of the source, which are not always exact repeats. Identical values can stand only once.

Tests used:
[1] = biological target: T1, pyruvate kinase (Oryctolagus cuniculus, UniProt P11974); assay: Steady-state pyruvate kinase assay using T303A variant ATP biosensor; format: biochemical, rabbit; conditions: 50 mM HEPES pH 7.2, 100 mM KCl, 10 mM MgCl2, 25°C; 500 μM phosphoenolpyruvate; 1 μM T303A rho-MatB as ATP sensor; read-out: Km for ADP
T1 construct: pyruvate kinase (rabbit muscle from Sigma); purchased Sigma; host or cells: rabbit muscle (tissue-derived)
T1 sequence (P11974 whole entry): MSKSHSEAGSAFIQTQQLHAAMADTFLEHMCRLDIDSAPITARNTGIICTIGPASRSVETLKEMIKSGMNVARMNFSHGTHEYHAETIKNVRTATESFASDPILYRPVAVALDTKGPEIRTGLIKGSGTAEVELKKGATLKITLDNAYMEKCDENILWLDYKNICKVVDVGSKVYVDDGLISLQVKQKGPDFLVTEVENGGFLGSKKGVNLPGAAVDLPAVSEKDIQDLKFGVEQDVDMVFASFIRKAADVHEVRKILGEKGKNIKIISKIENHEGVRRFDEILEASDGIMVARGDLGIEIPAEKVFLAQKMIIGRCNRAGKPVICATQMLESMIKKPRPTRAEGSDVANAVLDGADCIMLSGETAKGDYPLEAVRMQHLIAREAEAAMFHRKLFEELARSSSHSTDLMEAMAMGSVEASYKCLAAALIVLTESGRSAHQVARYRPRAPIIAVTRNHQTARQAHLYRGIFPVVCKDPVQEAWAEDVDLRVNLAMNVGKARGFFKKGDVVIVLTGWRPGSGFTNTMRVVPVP
Method: Steady-state activity measurements of pyruvate kinase (rabbit muscle from Sigma) were obtained using fluorescence on a CLARIOstar microplate reader (BMG Labtech). Assays were set up in 100 μl or 40 μl using 96-well using 384-well polystyrene microplates (low-protein-binding, Corning, USA) respectively.
We show one type of steady-state assay using a weak-binding variant, namely T303A, and a well understood enzyme system. This variant was used to measure the Km for ADP with pyruvate kinase (Fig 7). This measurement would not have been possible with the original reagent, as it requires measurements with hundreds of micromolar ADP. The assay measured formation of ATP as a function of time and made use of calibrations of the fluorescence signal at 0 and 500 μM ADP.
Fig 7 Test assay, measurement of the Km of ADP with pyruvate kinase using T303A variant ATP biosensor. The assay was run in multiwell format in 50 mM HEPES buffer pH 7.2, 100 mM KCl, 10 mM MgCl2, 0.3 mg ml^-1 bovine serum albumin at 25°C. The assay components were 500 μM phosphoenolpyruvate, 0.005 unit ml^-1 pyruvate kinase, 1 μM T303A rho-MatB and the micromolar concentrations of ADP shown on the inset panel for an illustrative set of traces. The data are shown as ATP production rates, using calibrations done at 0–20 μM ATP at 0 μM ADP and with ADP to make 500 μM total nucleotide concentration. […]

[2] = biological target: T2, Parent (Rho-MatB) (Rhodopseudomonas palustris, UniProt Q6ND88, C106A/K488A/Q457C/R286C); assay: Competition fluorescence titration of ATP into 0.5 µM parent Rho-MatB at fixed AMP (500 or 1000 µM) in 50 mM Hepes pH 7.0, 100 mM NaCl, 10 mM MgCl2, 0.3 mg/ml BSA, 20°C.; format: binding; conditions: read-out: KAMP (ATP titrated at fixed AMP)
T2 construct: N-terminal His6-tag, expressed in E. coli; two tetramethylrhodamines (5-IATR) on introduced cysteines
T2 sequence (Q6ND88 entry or part of it C106A/R286C/Q457C/K488A): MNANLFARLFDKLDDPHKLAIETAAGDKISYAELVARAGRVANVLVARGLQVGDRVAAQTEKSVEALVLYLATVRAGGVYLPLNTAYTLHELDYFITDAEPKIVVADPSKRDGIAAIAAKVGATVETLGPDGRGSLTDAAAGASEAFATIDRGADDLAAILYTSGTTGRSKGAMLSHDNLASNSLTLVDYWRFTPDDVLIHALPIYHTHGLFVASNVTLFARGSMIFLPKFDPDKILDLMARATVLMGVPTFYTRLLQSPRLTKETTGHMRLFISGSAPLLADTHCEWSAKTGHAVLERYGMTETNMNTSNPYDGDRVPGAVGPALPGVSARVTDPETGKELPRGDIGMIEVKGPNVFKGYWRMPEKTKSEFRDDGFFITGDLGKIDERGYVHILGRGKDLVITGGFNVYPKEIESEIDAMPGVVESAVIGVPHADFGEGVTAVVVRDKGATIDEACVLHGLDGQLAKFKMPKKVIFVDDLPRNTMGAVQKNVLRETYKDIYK
Method: Fig 6 Competition titrations between ATP and AMP binding to Rho-MatB variants. Titrations were under conditions as Fig 2, using 0.5 μM of the Rho-MatB variant. (A) Titration of AMP into Rho-MatB complex with a fixed concentration of ATP: 7 μM for the parent Rho-MatB (“wt”) and S170A, 50 μM for T303A and 150 μM for T167A. One representative data set is shown. Fluorescence changes were fit to A0[ATP]/(K' +[ATP]), where the apparent dissociation constant for ATP, K' = KATP(1 + [AMP]/KAMP). KATP and KAMP are the actual dissociation constants for ATP and AMP and A0 is the total fluorescence change at that ATP concentration. Taking the previously obtained values for KATP, the values of KAMP were 169 ± 23 μM for the parent Rho-MatB, 225 ± 15 μM for S170A, and 300 ± 12 μM for T167A. […] Data were fitted to the equation above, giving KAMP as 233 ± 11 μM using 500 μM AMP and 255 ± 16 μM at 1000 μM AMP.
Doing the competition titration the other way round, fixing AMP, caused a shift in apparent dissociation constant of ATP. […] Alternatively, fitting the data as described in Fig 6 gave values for the AMP dissociation constant that were similar to those in Fig 6A. The amplitude of the signal changes only little with AMP, but the range of ATP concentrations over the maximal signal change, is increased as AMP increases

SMILES | Km [1] [µM] | Kd [2]
Nc1ncnc2c1ncn2[C@@H]1O[C@H](COP(=O)(O)OP(=O)(O)O)[C@@H](O)[C@H]1O [ADP] | 56 ± 4 | –
Nc1ncnc2c1ncn2[C@@H]1O[C@H](COP(=O)(O)O)[C@@H](O)[C@H]1O [AMP, adenosine 5'-monophosphate] | – | 233 µM and 255 µM
